We go through 11 molecules from US7393870B2, “3-(heteroarylamino)methylene-1, 3-dihydro-2H-indol-2-ones as kinase inhibitors” (Allergan, Inc., priority 2001, dated 2008).

A value given as a limit tells only on which side of the number the result lay.

The first test relates to VEGF induced increases in intracellular calcium levels in HUVEC (human umbilical vein endothelial cells). Put plainly: VEGF Stimulated Ca++ signal assay (FLIPR). It is filed as cell-based. To be noted: 10 μM compound, 30 min pre-incubation, VEGF 5 ng/mL. Here is the method:
VEGF Stimulated Ca^++ Signal in vitro
(§1) Automated FLIPR (Fluorometric Imaging Plate Reader) technology was used to screen for inhibitors of VEGF induced increases in intracellular calcium levels in fluorescent dye loaded endothelial cells. HUVEC (human umbilical vein endothelial cells) (Clonetics) were seeded in 96-well fibronectin coated black-walled plates overnight @ 37° C./5% CO2. Cells were loaded with calcium indicator Fluo-4 for 45 minutes at 37° C. Cells were washed 4 times (Original Cell Wash, Labsystems) to remove extracellular dye. Test compounds were reconstituted in 100% DMSO and added to the cells to give a final DMSO concentration of 0.1%. […] Changes in fluorescence at 516 nm were measured simultaneously in all 96 wells using a cooled CCD camera. Data were generated by determining max-min fluorescence levels for unstimulated, stimulated, and drug treated samples. IC50 values for test compounds were calculated from % inhibition of VEGF stimulated responses in the absence of inhibitor. Protocol for KDR Assay: The cytoplasmic domain of the human VEGF receptor (VEGFR-2) was expressed as a Histidine-tagged fusion protein following infection of insect cells using an engineered baculovirus. His-VEGFR-2 was purified to homogeneity, as determined by SDS-PAGE, using nickel resin chromatography. […]
A word on the inhibition: it is the relative decrease from the control value, in per cent. For `Cc1cc(C)c(Cc2cc(NC=C3C(=O)Nc4ccccc43)[nH]n2)c(C)c1` [Example 36], the inhibition at 10 µM turned out to be 69.3%.

Still in this test, the particulars now being: VEGF 5 ng/mL, 0.01 to 10.0 μM.
The term IC50 denotes the concentration needed to halve the response being measured. With `Cc1cc(C)c(Cc2cc(NC=C3C(=O)Nc4ccccc43)[nH]n2)c(C)c1` [Example 36], the concentration for half-maximal inhibition (IC50) was 5.9 µM.

The target of another test is T1, cytoplasmic domain of the human VEGF receptor (VEGFR-2) (Homo sapiens, UniProt P35968).
T1 construct: The cytoplasmic domain of the human VEGF receptor (VEGFR-2) was expressed as a Histidine-tagged fusion protein; His (Histidine tag); made in house; host or cells: insect cells infected with an engineered baculovirus
T1 sequence (P35968 786-1356 limits assumed): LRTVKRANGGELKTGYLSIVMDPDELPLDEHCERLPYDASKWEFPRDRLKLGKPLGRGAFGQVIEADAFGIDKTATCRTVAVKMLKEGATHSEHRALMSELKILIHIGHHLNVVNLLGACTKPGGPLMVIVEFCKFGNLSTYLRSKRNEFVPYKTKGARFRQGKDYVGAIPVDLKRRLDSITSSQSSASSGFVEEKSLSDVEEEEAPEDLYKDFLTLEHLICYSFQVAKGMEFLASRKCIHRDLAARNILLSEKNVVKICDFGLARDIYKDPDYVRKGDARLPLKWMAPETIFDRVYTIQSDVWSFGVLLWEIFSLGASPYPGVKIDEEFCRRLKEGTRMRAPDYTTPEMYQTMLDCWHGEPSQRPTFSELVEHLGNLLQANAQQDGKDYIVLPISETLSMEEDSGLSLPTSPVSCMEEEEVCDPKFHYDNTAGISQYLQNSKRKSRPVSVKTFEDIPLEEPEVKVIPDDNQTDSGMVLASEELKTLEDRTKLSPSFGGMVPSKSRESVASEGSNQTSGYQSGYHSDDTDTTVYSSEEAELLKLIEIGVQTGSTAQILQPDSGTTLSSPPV
Put plainly: KDR Assay (kinase ELISA, poly-Glu-Tyr substrate). It is filed as biochemical. To be noted: His-VEGFR-2, 3.6 μM ATP. Here is the method:
Automated FLIPR (Fluorometric Imaging Plate Reader) technology was used to screen for inhibitors of VEGF induced increases in intracellular calcium levels in fluorescent dye loaded endothelial cells. HUVEC (human umbilical vein endothelial cells) (Clonetics) were seeded in 96-well fibronectin coated black-walled plates overnight @ 37° C./5% CO2. Cells were loaded with calcium indicator Fluo-4 for 45 minutes at 37° C. Cells were washed 4 times (Original Cell Wash, Labsystems) to remove extracellular dye. Test compounds were reconstituted in 100% DMSO and added to the cells to give a final DMSO concentration of 0.1%. For screening, cells were pre-incubated with test agents for 30 minutes, at a single concentration (10 μM) or at concentrations ranging from 0.01 to 10.0 μM followed by VEGF stimulation (5 ng/mL). Changes in fluorescence at 516 nm were measured simultaneously in all 96 wells using a cooled CCD camera. Data were generated by determining max-min fluorescence levels for unstimulated, stimulated, and drug treated samples. IC50 values for test compounds were calculated from % inhibition of VEGF stimulated responses in the absence of inhibitor. Protocol for KDR Assay: The cytoplasmic domain of the human VEGF receptor (VEGFR-2) was expressed as a Histidine-tagged fusion protein following infection of insect cells using an engineered baculovirus. His-VEGFR-2 was purified to homogeneity, as determined by SDS-PAGE, using nickel resin chromatography. Kinase assays were performed in 96 well microtiter plates that were coated overnight with 30 μg of poly-Glu-Tyr (4:1) in 10 mM Phosphate Buffered Saline (PBS), pH 7.2-7.4. The plates were incubated with 1% BSA and then washed four times with PBS prior to starting the reaction. Reactions were carried out in 120 μL reaction volumes containing 3.6 μM ATP in kinase buffer (50 mM Hepes buffer pH 7.4, 20 mM MgCl2, 0.1 mM MnCl2 and 0.2 mM Na3VO4). Test compounds were reconstituted in 100% DMSO and added to the reaction to give a final DMSO concentration of 5%. Reactions were initiated by the addition 0.5 ng of purified protein. Following a ten minute incubation at 25° C., the reactions were washed four times with PBS containing 0.05% Tween-20. 100 μl of a monoclonal anti-phosphotyrosine antibody-peroxidase conjugate was diluted 1:10000 in PBS-Tween-20 and added to the wells for 30 minutes. Following four washes with PBS-Tween-20, 100 μl of 0-Phenylenediamine Dihydrochloride in Phosphate-citrate buffer, containing urea hydrogen peroxide, was added to the wells for 7 minutes as a colorimetric substrate for the peroxidase. The reaction was terminated by the addition of 100 μl of 2.5N H2SO4 to each well and read using a microplate ELISA reader set at 492 nm. IC50 values for compound inhibition were calculated directly from graphs of optical density (arbitrary units) versus compound concentration following subtraction of blank values. Miles Assay Description VEGF-induced Dermal Extravasation in Guinea Pig (Miles Assay). Male Hartley guinea pigs (300-600 g) were anesthetized with isofluorane, sheared, and given a single oral dose of drug or the respective vehicle. Ten minutes prior to the end of drug treatment, guinea pigs were anesthetized with isofluorane, and 0.5% Evans blue dye (EBD) in PBS (13-15 mg/kg dose of EBD) was injected intravenously. After 5 minutes, triplicate intradermal injections of 100 ng rhVEGF165 in 100 μl PBS and of 100 μl PBS alone were administered on the flank. After 20 minutes, each animal was euthanized with Pentosol, and the skin containing the intradermal injection sites was removed for image analysis.
`Cc1cccc2c1C(=CNc1n[nH]c(-c3ccccc3)c1Br)C(=O)N2` [Example 12, 3-[(4-Bromo-5-phenyl-1H-pyrazol-3-ylamino)-methylene]-4-methyl-1,3-dihydro-indol-2-one]: the concentration for half-maximal inhibition (IC50) is no less than 10 µM. Same read-out and setting: next, `O=C1Nc2ccc(Cl)cc2C1=CNc1n[nH]c(-c2ccccc2)c1Br` [Example 13, 3-[(4-Bromo-5-phenyl-1H-pyrazol-3-ylamino)-methylene]-5-chloro-1,3-dihydro-indol-2-one]: no less than 10 µM; `COC(=O)c1ccc(-c2cc(NC=C3C(=O)Nc4ccccc43)n[nH]2)cc1` [Example 24, 4-{5-[(2-Oxo-1,2-dihydro-indol-3-ylidenemethyl)-amino]-2H-pyrazol-3-yl}-benzoic acid methyl ester]: no less than 10 µM; `Cc1cc(C)c2c(NC=C3C(=O)Nc4ccccc43)n[nH]c2n1` [Example 25, 3-[(4,6-Dimethyl-1H-pyrazolo[3,4-b]pyridin-3-ylamino)-methylene]-1,3-dihydro-indol-2-one]: no less than 10 µM.

As for `O=C1Nc2ccccc2C1=CNc1cc(-c2cc(OCc3ccccc3)cc(OCc3ccccc3)c2)n[nH]1` [Example 31, 3-{[5-(3,5-Bis-benzyloxy-phenyl)-2H-pyrazol-3-ylamino]-methylene}-1,3-dihydro-indol-2-one], the 50% inhibitory concentration (IC50) was no less than 10 µM. Still for that read-out and setting: next, `Cc1ccc(-c2cc(NC=C3C(=O)Nc4ccccc43)[nH]n2)c(C)c1` [Example 34, 3-{[5-(2,4-Dimethyl-phenyl)-2H-pyrazol-3-ylamino]-methylene}-1,3-dihydro-indol-2-one]: no less than 10 µM; `Cc1cc(C)c(Cc2cc(NC=C3C(=O)Nc4ccccc43)[nH]n2)c(C)c1` [Example 36]: no less than 10 µM. Same read-out and setting: in the case of `Cc1cccc(Cc2cc(NC=C3C(=O)Nc4ccccc43)[nH]n2)c1` [Example 39, 3-{[5-(3-Methyl-benzyl)-2H-pyrazol-3-ylamino]-methylene}-1,3-dihydro-indol-2-one] it was no less than 10 µM; in that of `O=C1Nc2ccccc2C1=CNc1cc(Cc2ccccc2)n[nH]1` [Example 40, 3-[(5-Benzyl-2H-pyrazol-3-ylamino)-methylene]-1,3-dihydro-indol-2-one], no less than 10 µM.

The subject of the next test is VEGF-induced EBD extravasation. Put plainly: Miles Assay: VEGF-induced Dermal Extravasation in Guinea Pig. The format is in vivo. The settings on record: oral administration, Table 3. Here is the method:
as §1
`Cc1cccc2c1C(=CNc1cc[nH]n1)C(=O)N2` [Example 6, 4-Methyl-3-[(1H-pyrazol-3-ylamino)-methylene]-1,3-dihydro-indol-2-one]: the “in-vivo activity (Miles Assay, in words)” value is on record as “significant in-vivo activity”. On the same count and under the same terms, in the case of `Cc1cc(NC=C2C(=O)Nc3ccc(F)cc32)n[nH]1` [Example 26, 5-Fluoro-3-[(5-methyl-1H-pyrazol-3-ylamino)-methylene]-1,3-dihydro-indol-2-one] it was “significant in-vivo activity”.
